Assays:
[1] = tested on: KS Y-1 induced tumors; test: KS Y-1 tumors induced in immunodeficient mice; settings: compared to β-hCG peptides 45-57 and 109-119
[2] = tested on: KS tumors and cells; test: Overall anti-KS activity of hCG preparations and peptides in vitro and in vivo; settings: for anti-KS effects: in vitro and in vivo animal model data
[3] = tested on: KS Y-1 or KS-SLK cells; test: KS clonogenic assay in methylcellulose; assay type: cell-based, human
Method: Briefly, the KS Y-1 cells were obtained from mononuclear cells isolated from pleural effusion of an AIDS patient with KS involving the lungs. After the depletion of T lymphocytes, monocytes/macrophages and fibroblasts by the cytotoxicity method, using monoclonal antibodies against CD2, CD3, CD4, CD8, CD10 and CD14 membrane antigens and baby rabbit complement, the cells were cultured in the absence of exogenous growth factors to select for transformed cells.

[4] = tested on: HIV; test: HIV assays (anti-viral effects)

Molecule: β-hCG peptide 93-100: β-hCG peptide of amino acids 93-100 (CRRSTTDC; UniProt P0DN86 113-120, looked up, fragment)
- anti-KS activity of other peptides [1]: inactive

Molecule: β-hCG peptide 6-40: β-hCG peptide 6-40, forms part of the β-core (RPRCRPINATLAVEKEGCPVCITVNTTICAGYCPT; UniProt P0DN86 26-60, looked up, fragment)
- anti-KS activity of other peptides [1]: slight activity

Molecule: β-hCG peptide 109-119: synthetic peptide of amino acid numbers 109-119 of the beta subunit of hCG (TCDDPRFQDSS)
- activities of native hCG preparations (anti-KS, anti-viral, pro-hematopoietic) mimicked or retained [2]: mimicked
- anti-KS effects [2]: have anti-KS effects
- anti-tumor (anti-KS) effects in clonogenic assays ([3]; 50 nmoles/ml, 2 KS neoplastic cell lines, 10 days): strongest anti-tumor effects
- anti-viral effects [4]: strongest anti-viral effects

Molecule: β-hCG peptide 74-95: β-hCG peptide of amino acids 74-95 (RGVNPVVSYAVALSCQCALCRR; UniProt P0DN86 94-115, looked up, fragment)
- anti-KS activity of other peptides [1]: inactive
- inhibition in clonogenic assays [3]: little or no inhibition

Molecule: β-hCG peptide 38-57: β-hCG peptide of amino acids 38-57, overlaps satellin A1 (CPTMTRVLQGVLPALPQVVC; UniProt P0DN86 58-77, looked up, fragment)
- anti-KS activity of other peptides [1]: slight activity
- inhibition in clonogenic assays [3]: little or no inhibition

Molecule: β-hCG peptide 7-40: β-hCG peptide of amino acids 7-40 (PRCRPINATLAVEKEGCPVCITVNTTICAGYCPT; UniProt P0DN86 27-60, looked up, fragment)
- inhibition in clonogenic assays [3]: little or no inhibition

Molecule: α-hCG peptide 88-92: α-hCG peptide of amino acids 88-92 (YYHKS; UniProt P01215 112-116, looked up, fragment)
- anti-KS activity of other peptides [1]: inactive
- inhibition in clonogenic assays [3]: little or no inhibition

Molecule: β-hCG peptide 34-49: β-hCG peptide of amino acids 34-49 (CAGYCPTMTRVLQGVL; UniProt P0DN86 54-69, looked up, fragment)
- anti-KS activity of other peptides [1]: inactive
- inhibition in clonogenic assays [3]: little or no inhibition

Molecule: β-hCG peptide 55-90: β-hCG peptide 55-90, forms part of the β-core (VVCNYRDVRFESIRLPGCPRGVNPVVSYAVALSCQC; UniProt P0DN86 75-110, looked up, fragment)
- anti-KS activity of other peptides [1]: slight activity

Molecule: β-hCG peptide 57-93: β-hCG peptide of amino acids 57-93 (CNYRDVRFESIRLPGCPRGVNPVVSYAVALSCQCALC; UniProt P0DN86 77-113, looked up, fragment)
- anti-KS activity of other peptides [1]: inactive
- inhibition in clonogenic assays [3]: little or no inhibition

Molecule: β-hCG peptide 100-110: β-hCG peptide of amino acids 100-110 (CGGPKDHPLTC; UniProt P0DN86 120-130, looked up, fragment)
- anti-KS activity of other peptides [1]: inactive
- inhibition in clonogenic assays [3]: little or no inhibition

B1: pure β-chain: pure β-chain of hCG (protein, UniProt P0DN86 21-165, looked up)
Choriogonadotropin subunit …: SKEPLRPRCRPINATLAVEKEGCPVCITVNTTICAGYCPTMTRVLQGVLPALPQVVCNYRDVRFESIRLPGCPRGVNPVVSYAVALSCQCALCRRSTTDCGGPKDHPLTCDDPRFQDSSSSKAPPPSLPSPSRLPGPSDTPILPQ
- anti-KS effect in clonogenic assays ([3]; pure subunit chains): no anti-KS effect

B2: partially purified β-hCG: native partially purified whole β-chain of hCG (protein, UniProt P0DN86 21-165, looked up)
Choriogonadotropin subunit …: SKEPLRPRCRPINATLAVEKEGCPVCITVNTTICAGYCPTMTRVLQGVLPALPQVVCNYRDVRFESIRLPGCPRGVNPVVSYAVALSCQCALCRRSTTDCGGPKDHPLTCDDPRFQDSSSSKAPPPSLPSPSRLPGPSDTPILPQ
- anti-KS effects [2]: have anti-KS effects
- anti-KS effects ([2]; listed as native partially purified whole β-chain): considerable anti-KS activity

B3: recombinant β-hCG (purified): purified recombinant β-hCG (protein, UniProt P0DN86 21-165, looked up)
Choriogonadotropin subunit …: SKEPLRPRCRPINATLAVEKEGCPVCITVNTTICAGYCPTMTRVLQGVLPALPQVVCNYRDVRFESIRLPGCPRGVNPVVSYAVALSCQCALCRRSTTDCGGPKDHPLTCDDPRFQDSSSSKAPPPSLPSPSRLPGPSDTPILPQ
- anti-KS effects [2]: little or no effect

Reference: US5997871A (priority 1996, dated 1999)
